The values that follow come from US20100076015A1, “Aminopyridine Derivatives” (VANTIA LIMITED, priority 2008, published 2010).

T1 sequence (P06870 25-262): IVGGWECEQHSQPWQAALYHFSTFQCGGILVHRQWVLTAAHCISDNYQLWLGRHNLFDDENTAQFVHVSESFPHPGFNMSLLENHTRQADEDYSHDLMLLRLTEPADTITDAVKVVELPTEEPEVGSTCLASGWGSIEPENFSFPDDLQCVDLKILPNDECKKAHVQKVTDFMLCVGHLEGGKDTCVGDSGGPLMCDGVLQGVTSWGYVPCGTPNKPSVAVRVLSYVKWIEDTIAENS

This assay concerns the target T1, Human KLK1 (Homo sapiens, UniProt P06870).
T1 construct: purchased Callbiochem (Calbiochem)
Put plainly: Determination of the IC50 for KLK1 (fluorogenic substrate H-DVal-Leu-Arg-AFC). Format: biochemical. The following applies: 37° C. Put shortly:
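Human KLK1 incubated at 37° C with fluorogenic substrate H-DVal-Leu-Arg-AFC and a range of test compound concentrations. Residual activity taken as initial reaction rate from absorbance change at 410 nm; IC50 derived from these rates.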
Broadly, the IC50 is the point on the concentration scale where inhibition reaches its midpoint. A higher IC50 goes with a need for much substance. With `COc1ccc2[nH]c(C(=O)N[C@@H](Cc3cccc(F)c3)C(=O)NCc3ccc(N)nc3)cc2c1` [Example 312, 5-Methoxy-1H-indole-2-carboxylic acid [(S)-1-[(6-amino-pyridin-3-ylmethyl)-carbamoyl]-2-(3-fluoro-phenyl)-ethyl]-amide], the IC50 turned out to be 38.4 nM.

On to `Nc1ccc(CNC(=O)[C@H](Cc2cccc(Cl)c2)NC(=O)c2cc3ccccc3[nH]2)cn1` [Example 313, 1H-Indole-2-carboxylic acid [(S)-1-[(6-amino-pyridin-3-ylmethyl)-carbamoyl]-2-(3-chloro-phenyl)-ethyl]-amide], for which the IC50 was 8.7 nM.

With `COc1ccc2[nH]c(C(=O)N[C@@H](Cc3cccc(Cl)c3)C(=O)NCc3ccc(N)nc3)cc2c1` [Example 314, 5-Methoxy-1H-indole-2-carboxylic acid [(S)-1-[(6-amino-pyridin-3-ylmethyl)-carbamoyl]-2-(3-chloro-phenyl)-ethyl]-amide], the IC50 turned out to be 15.6 nM.

Turning to `Cc1nc(N)ccc1CNC(=O)[C@@H](Cc1cccc(Cl)c1)NC(=O)c1cc2ccccc2[nH]1` [Example 315, 1H-Indole-2-carboxylic acid [(R)-1-[(6-amino-2-methyl-pyridin-3-ylmethyl)-carbamoyl]-2-(3-chloro-phenyl)-ethyl]-amide], the IC50 stood at 68.6 nM.

In turn, `COc1ccc2[nH]c(C(=O)N[C@@H](Cc3cccc(Cl)c3)C(=O)NCc3ccc(N)nc3C)cc2c1` [Example 316, 5-Methoxy-1H-indole-2-carboxylic acid [(S)-1-[(6-amino-2-methyl-pyridin-3-ylmethyl)-carbamoyl]-2-(3-chloro-phenyl)-ethyl]-amide] had an IC50 of 76.7 nM.

In turn, `Cc1cccc(C[C@H](NC(=O)c2cc3ccccc3[nH]2)C(=O)NCc2ccc(N)nc2)c1` [Example 317, 1H-Indole-2-carboxylic acid {(S)-1-[(6-amino-pyridin-3-ylmethyl)-carbamoyl]-2-m-tolyl-ethyl}-amide] returned an IC50 of 14.7 nM.

The molecule `COc1ccc2[nH]c(C(=O)N[C@@H](Cc3cccc(C)c3)C(=O)NCc3ccc(N)nc3)cc2c1` [Example 318, 5-Methoxy-1H-indole-2-carboxylic acid {(S)-1-[(6-amino-pyridin-3-ylmethyl)-carbamoyl]-2-m-tolyl-ethyl}-amide] had an IC50 of 12.1 nM.

With `Cc1cccc(C[C@H](NC(=O)c2cc3ccccc3[nH]2)C(=O)NCc2ccc(N)nc2C)c1` [Example 319, 1H-Indole-2-carboxylic acid {(S)-1-[(6-amino-2-methyl-pyridin-3-ylmethyl)-carbamoyl]-2-m-tolyl-ethyl}-amide], the IC50 came out at 110 nM.

Molecule `Cc1nc(N)ccc1CNC(=O)[C@H](Cc1ccc(Cl)c(Cl)c1)NC(=O)c1cc2ccccc2[nH]1` [Example 320, 1H-Indole-2-carboxylic acid [(S)-1-[(6-amino-2-methyl-pyridin-3-ylmethyl)-carbamoyl]-2-(3,4-dichloro-phenyl)-ethyl]-amide] gave an IC50 of 98.5 nM.

`COc1ccc2[nH]c(C(=O)N[C@@H](Cc3ccc(Cl)c(Cl)c3)C(=O)NCc3ccc(N)nc3C)cc2c1` [Example 321, 5-Methoxy-1H-indole-2-carboxylic acid [(S)-1-[(6-amino-2-methyl-pyridin-3-ylmethyl)-carbamoyl]-2-(3,4-dichloro-phenyl)-ethyl]-amide]: the IC50 stood at 85.4 nM.

The molecule `Cc1nc(N)ccc1CNC(=O)[C@H](Cc1ccccc1C(F)(F)F)NC(=O)c1cc2ccccc2[nH]1` [Example 322, 1H-Indole-2-carboxylic acid [(S)-1-[(6-amino-2-methyl-pyridin-3-ylmethyl)-carbamoyl]-2-(2-trifluoromethyl-phenyl)-ethyl]-amide] had an IC50 of 12.4 nM.

`Nc1ccc(CNC(=O)[C@H](Cc2cc(F)cc(F)c2)NC(=O)c2cc3ccccc3[nH]2)cn1` [Example 323, 1H-Indole-2-carboxylic acid [(S)-1-[(6-amino-pyridin-3-ylmethyl)-carbamoyl]-2-(3,5-difluoro-phenyl)-ethyl]-amide] gave an IC50 of 48.1 nM.
